# Source: patent US8420660B2, “Antitubercular alkaloid” (priority 2011, dated 2013)
# What was measured:
# VERO cell = assay type: cell-based; conditions: VERO cell CC50 (72 hours exposure) / M. tuberculosis H37Rv IC90
# [1] = test system: Mycobacterium tuberculosis H37Rv (ATCC 27294); assay: Primary screen (dose response), Microplate Alamar Blue Assay (MABA), IC90; assay type: cell-based; conditions: M. tuberculosis H37Rv, BACTEC 12B medium, Level-I assay
# Experimental: Primary Screen (Dose Response): Determination of a 90% Inhibitory Concentration (IC90). The initial screen is conducted against Mycobacterium tuberculosis H37Rv (ATCC 27294) in BACTEC 12B medium using the Microplate Alamar Blue Assay (MABA). Compounds are tested in ten 2-fold dilutions, typically from 100 μg/mL to 0.19 μg/mL. The IC90 is defined as the concentration effecting a reduction in fluorescence of 90% relative to controls. This value is determined from the dose-response curve using a curve-fitting program. Any IC90 value of ≦10 μg/mL is considered “Active” for antitubercular activity.
substance,measurement,setting,value
"10,12-diheptanoyl-11-hydroxy-3-methyl-β-carboline [Compound I]",Selectivity Index (SI) = CC50 divided by IC90,VERO cell,> 105.48
same,"IC90 (90% inhibitory concentration), antituberculosis activity",[1],0.948 µg/mL
